Reference: PMC6821791, “Phase I Trial of Pyragrel, a Novel Thromboxane Synthetase Inhibitor, to Evaluate the Safety, Tolerability, and Pharmacokinetics in Healthy Volunteers” (Frontiers in Pharmacology, 2019)

Experiments:
[1] = Safety assessment, adverse event monitoring (Parts I-V); type: in vivo, human
Experimental: Safety was assessed using subject interviews and adverse event (AE) monitoring. All subjects received laboratory examinations after termination of drug infusion for 48 or 72 h; the examination items are the same as those listed in the screening process. If clinical abnormalities were present, further follow-ups were required until the laboratory test values or vital sign levels of the abnormal items returned to normal values or stable levels. The clinical significance of abnormal laboratory test values was determined by the physicians.
The vital signs were analyzed by repeated measures analysis of variance (ANOVA), and laboratory indexes were analyzed by the paired t-test and one-way ANOVA. Comparison within different dose regimens of pyragrel or among different treatments (pyragrel, ozagrel, and placebo) or production of urinary 11-D-HTXB2 among groups was performed with the t-test, and expected values were considered along with the actual situation. Descriptive methods were used to compare the incidence of AE between pyragrel and ozagrel/placebo or in different pyragrel dose regimens; the normal/abnormal changes in laboratory examinations before and after administration were described.

[2] = set-up: method as in Morio et al., 1993; details: patients with ozagrel treatment; ref Morio et al., 1993; cited from earlier work
[3] = dog, in vivo; cited from earlier work
[4] = Part I, controls of the 30 mg dose group (ozagrel 80 mg)
[5] = Part I, controls of the 120 mg dose group (ozagrel 80 mg)
[6] = Part I, controls of the 180 mg dose group (ozagrel 80 mg)

With `O=C(O)/C=C/c1ccc(Cn2ccnc2)cc1` [Ozagrel, Sodium ozagrel, reference compound] the “Number of AEs in Part I” value ([1]; Part I, 36 pyragrel-treated subjects, 8 subjects of ozagrel treatment) was 3, the “AE Type, Ozagrel/placebo” value [1, 4] was “DB elevation” and the “Number of AEs, Ozagrel/placebo” value [1, 4] was 1. The “Number of AEs, Ozagrel/placebo” value ([1]; Part I, controls of the 60 mg dose group (ozagrel 80 mg)) was 0, the “AE Type, Ozagrel/placebo” value [1, 5] was “DB elevation” and the “Number of AEs, Ozagrel/placebo” value [1, 5] was 1. For the same compound, the “AE Type, Ozagrel/placebo” value [1, 6] was “abdominal pain”, the “Number of AEs, Ozagrel/placebo” value [1, 6] was 1 and the “Number of AEs, Ozagrel/placebo” value ([1]; Part I, listed as of the 240 mg dose group) was 0. For the same compound, the “Number of AEs, Ozagrel/placebo” value ([1]; Part I, listed as of the 300 mg dose group) was 0, the “Number of AEs, Ozagrel/placebo” value ([1]; Total) was 3 and the “Incidence of elevation in conjugated bilirubin (DB elevation)” value ([1]; all parts, 12/68 subjects of pyragrel, 2/8 subjects of ozagrel) was 25%. For the same compound, the “Incidence rate of severe bleeding” value [2] was “up to 5%” and the Maximum safe dose [3] was 12.5 mg/kg/day.
